Consider eleven compounds from ChEMBL document CHEMBL3137667, “[Drug-induced liver injury; fourteenth updated edition of the bibliographic database of liver injuries and related drugs]” (Gastroenterol Clin Biol, 2004).

For series [1] the following is noted: human.
For series [2] the following is noted: human. The source holds these as a separate data set.
For series [3] the following is noted: human, serum, 4383 h.
The conditions of series [4]: human. This is another data set of the same source.
The conditions of series [5]: human. The source holds these as a separate data set.
A short description of series [6]: Highest frequency of moderate liver toxicity observed during clinical trials, expressed as a percentage. [column '% BIOL' in source]. The note with it: human.
For series [7] the following is noted: human. This is another data set of the same source.
For series [8] the following is noted: human. This is another data set of the same source.
For series [9] the following is noted: human. This is another data set of the same source.
The conditions of series [10]: human, serum.
For series [11] the following is noted: human. The source holds these as a separate data set.
The conditions of series [12]: human, serum. The source holds these as a separate data set.
The conditions of series [13]: human. This is another data set of the same source.
The nature of series [14]: Highest frequency of acute liver toxicity observed during clinical trials, expressed as a percentage. [column '% AIGUE' in source]. The conditions noted are these: human.
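For Hepatotoxicity (association with vascular disease) in this document: count of indexed literature references reporting vascular liver injury in humans, e.g. peliosis hepatitis, hepatic veno-occlusive disease or Budd-Chiari syndrome.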
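For Hepatotoxicity (benign tumour) in this document: value is a count of indexed literature references citing a benign tumour confirmed by histopathology.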
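For Hepatotoxicity (choleostasis) in this document: human cholestatic liver injury, shown by histopathology or by peak ALT or AST elevation over alkaline phosphatase ratio below 2, value counts indexed literature reports.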
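For Hepatotoxicity (chronic liver disease) in this document: chronic liver injury confirmed by histopathology or persistently raised serum aminotransferase activity beyond 6 months, value given as the count of indexed literature references.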
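For Hepatotoxicity (cirrhosis) in this document: value is a count of indexed literature references reporting cirrhosis confirmed by histopathology.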
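For Hepatotoxicity (cytolytic) in this document: human cytolytic liver injury, shown by histopathology or by a ratio above 5 of peak ALT or AST elevation to alkaline phosphatase elevation, value counts indexed references.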
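For Hepatotoxicity (granulomatous hepatitis) in this document: value is a count of indexed literature references reporting granulomatous liver disease confirmed by histopathology.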
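For Hepatotoxicity (malignant tumour) in this document: malignant tumour confirmed by histopathology, value gives the count of indexed literature references reporting it.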
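For Hepatotoxicity (severe hepatitis) in this document: human clinical data: severe hepatitis, meaning potentially life-threatening liver failure or clinically observed cases, the value counts how many indexed literature references report it.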
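For Hepatotoxicity (steatosis) in this document: steatosis confirmed by histopathology, value is the count of indexed references.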

As for `C[C@@H]1C[C@H](C)CN(S(=O)(=O)c2ccc(Cl)c(C(=O)O)c2)C1` [TIBRIC ACID], in [1], the “Hepatotoxicity (cytolytic)” value worked out at 0. In series [2], the “Hepatotoxicity (choleostasis)” value is recorded as 0. In addition, the “Hepatotoxicity (chronic liver disease)” value in series [3] is given as 0. Moreover, in [4], the “Hepatotoxicity (cirrhosis)” value is recorded as 0. Moreover, the “Hepatotoxicity (severe hepatitis)” value in [5] came out at 0. The “Hepatotoxicity (moderate)” value in series [6] came to 0%; in series [12], 1. In series [7], the “Hepatotoxicity (association with vascular disease)” value is 0. The “Hepatotoxicity (malignant tumour)” value in [8] was 0. Further, the “Hepatotoxicity (steatosis)” value in [9] is 0. The “Hepatotoxicity (acute)” value came to 0 in [10] and 0% in series [14]. Also, in series [11], the “Hepatotoxicity (benign tumour)” value is 0. In addition, in series [13], the “Hepatotoxicity (granulomatous hepatitis)” value amounted to 0.

As to `CC1(C)CC(=O)N(CCCCN2CCN(c3ncccn3)CC2)C(=O)C1` [GEPIRONE], the “Hepatotoxicity (cytolytic)” value in [1] was 0. For the same compound, the “Hepatotoxicity (choleostasis)” value in [2] worked out at 0. Also, the “Hepatotoxicity (chronic liver disease)” value in series [3] is 0. Further, the “Hepatotoxicity (cirrhosis)” value in [4] worked out at 0. The “Hepatotoxicity (severe hepatitis)” value in series [5] was 0. Moreover, the results for the “Hepatotoxicity (moderate)” value in series [6] and in series [12] were 3.3% and 1, respectively. The “Hepatotoxicity (association with vascular disease)” value in series [7] is reported as 0. Besides, the “Hepatotoxicity (malignant tumour)” value in series [8] amounted to 0. Besides, in [9], the “Hepatotoxicity (steatosis)” value amounted to 0. Further, the “Hepatotoxicity (acute)” value in [10] is 0; in series [14] it was 0%. Further, the “Hepatotoxicity (benign tumour)” value in series [11] came out at 0. In addition, the “Hepatotoxicity (granulomatous hepatitis)” value in [13] was 0.

Consider `CC(C)(N)C(=O)N[C@H](COCc1ccccc1)C(=O)N1CCC2(CC1)CN(S(C)(=O)=O)c1ccccc12` [IBUTAMOREN], for which the “Hepatotoxicity (cytolytic)” value in series [1] is 0. For the same compound, in [2], the “Hepatotoxicity (choleostasis)” value came out at 0. Besides, the “Hepatotoxicity (chronic liver disease)” value in [3] worked out at 0. The “Hepatotoxicity (cirrhosis)” value in [4] is reported as 0. In addition, the “Hepatotoxicity (severe hepatitis)” value in series [5] came to 0. The “Hepatotoxicity (moderate)” value is given as 21.4% in series [6] and 1 in series [12]. The “Hepatotoxicity (association with vascular disease)” value in [7] was 0. In addition, in series [8], the “Hepatotoxicity (malignant tumour)” value came to 0. Besides, the “Hepatotoxicity (steatosis)” value in series [9] was 0. The “Hepatotoxicity (acute)” value in series [10] is recorded as 0; in [14], 0%. The “Hepatotoxicity (benign tumour)” value in [11] came out at 0. In addition, the “Hepatotoxicity (granulomatous hepatitis)” value in series [13] turned out to be 0.

On to `CC1(C)[C@@H](OC(=O)CCC(=O)O)CC[C@]2(C)[C@H]3C(=O)C=C4[C@@H]5C[C@@](C)(C(=O)O)CC[C@]5(C)CC[C@@]4(C)[C@]3(C)CC[C@@H]12` [CARBENOXOLONE], for which the “Hepatotoxicity (cytolytic)” value in series [1] stood at 0. The “Hepatotoxicity (choleostasis)” value in [2] worked out at 0. In addition, the “Hepatotoxicity (chronic liver disease)” value in series [3] amounted to 0. Besides, the “Hepatotoxicity (cirrhosis)” value in [4] turned out to be 0. Further, in [5], the “Hepatotoxicity (severe hepatitis)” value stood at 0. Also, the “Hepatotoxicity (moderate)” value in series [6] is recorded as 0%; in series [12], 2. In addition, in [7], the “Hepatotoxicity (association with vascular disease)” value was 0. Also, the “Hepatotoxicity (malignant tumour)” value in [8] is recorded as 0. For the same compound, in series [9], the “Hepatotoxicity (steatosis)” value came to 0. Also, the results for the “Hepatotoxicity (acute)” value in [10] and in series [14] were 0 and 0%, respectively. The “Hepatotoxicity (benign tumour)” value in series [11] worked out at 0. The “Hepatotoxicity (granulomatous hepatitis)” value in series [13] is 0.

As to `O=C(COCC(=O)Nc1c(I)cc(I)c(C(=O)O)c1I)Nc1c(I)cc(I)c(C(=O)O)c1I` [IOGLYCAMIC ACID], in series [1], the “Hepatotoxicity (cytolytic)” value is 0. Further, the “Hepatotoxicity (choleostasis)” value in series [2] came out at 0. The “Hepatotoxicity (chronic liver disease)” value in series [3] was found to be 0. Further, in [4], the “Hepatotoxicity (cirrhosis)” value was found to be 0. In series [5], the “Hepatotoxicity (severe hepatitis)” value turned out to be 0. The “Hepatotoxicity (moderate)” value came out at 0% in series [6] and 1 in series [12]. Besides, in [7], the “Hepatotoxicity (association with vascular disease)” value turned out to be 0. In addition, in [8], the “Hepatotoxicity (malignant tumour)” value was 0. In series [9], the “Hepatotoxicity (steatosis)” value amounted to 0. The “Hepatotoxicity (acute)” value in series [10] is given as 0; in series [14], 0%. Also, in series [11], the “Hepatotoxicity (benign tumour)” value is 0. The “Hepatotoxicity (granulomatous hepatitis)” value in series [13] is 0.

As to `CCOc1ccccc1OCC1CNCCO1` (centres undefined) [VILOXAZINE], the “Hepatotoxicity (cytolytic)” value in series [1] (Liver) is recorded as 1. For the same compound, the “Hepatotoxicity (choleostasis)” value in series [2] (Liver) was found to be 0. The “Hepatotoxicity (chronic liver disease)” value in [3] stood at 0. The “Hepatotoxicity (cirrhosis)” value in series [4] is given as 0. Further, the “Hepatotoxicity (severe hepatitis)” value in series [5] (Liver) came to 0. Further, the figures for the “Hepatotoxicity (moderate)” value in [6] (Liver) and in series [12] were 0% and 2, respectively. Besides, the “Hepatotoxicity (association with vascular disease)” value in [7] is listed as 0. Also, in series [8], the “Hepatotoxicity (malignant tumour)” value turned out to be 0. Besides, in [9], the “Hepatotoxicity (steatosis)” value came out at 0. The “Hepatotoxicity (acute)” value came out at 1 in series [10] and 0% in [14] (Liver). In addition, the “Hepatotoxicity (benign tumour)” value in [11] was determined as 0. Further, the “Hepatotoxicity (granulomatous hepatitis)” value in series [13] (Liver) amounted to 0.

As for SODIUM NITROPRUSSIDE, in series [1], the “Hepatotoxicity (cytolytic)” value turned out to be 0. Moreover, the “Hepatotoxicity (choleostasis)” value in series [2] worked out at 0. Moreover, the “Hepatotoxicity (chronic liver disease)” value in series [3] was 0. Moreover, the “Hepatotoxicity (cirrhosis)” value in series [4] is 0. For the same compound, the “Hepatotoxicity (severe hepatitis)” value in series [5] was 0. Moreover, the “Hepatotoxicity (moderate)” value in [6] stood at 41%; in series [12], 1. The “Hepatotoxicity (association with vascular disease)” value in series [7] was 0. The “Hepatotoxicity (malignant tumour)” value in [8] was found to be 0. Also, the “Hepatotoxicity (steatosis)” value in series [9] was found to be 0. In addition, the “Hepatotoxicity (acute)” value in [10] is 0; in series [14], 0%. Moreover, the “Hepatotoxicity (benign tumour)” value in series [11] is recorded as 0. Also, the “Hepatotoxicity (granulomatous hepatitis)” value in [13] is recorded as 0.

`CCNNC(=O)[C@@H]1[C@H](c2cc(OC)c(OC)c(OC)c2)c2cc3c(cc2[C@H](O)[C@H]1CO)OCO3` [MITOPODOZIDE]: in series [1], the “Hepatotoxicity (cytolytic)” value is listed as 0. The “Hepatotoxicity (choleostasis)” value in series [2] came out at 0. Besides, in [3], the “Hepatotoxicity (chronic liver disease)” value is 0. Also, the “Hepatotoxicity (cirrhosis)” value in series [4] was found to be 0. The “Hepatotoxicity (severe hepatitis)” value in series [5] amounted to 0. Also, the “Hepatotoxicity (moderate)” value in series [6] amounted to 1.3%; in [12], 1. Moreover, the “Hepatotoxicity (association with vascular disease)” value in series [7] turned out to be 0. In addition, the “Hepatotoxicity (malignant tumour)” value in series [8] came out at 0. Also, the “Hepatotoxicity (steatosis)” value in series [9] is reported as 0. For the same compound, the “Hepatotoxicity (acute)” value in series [10] was 0; in series [14], 0%. For the same compound, the “Hepatotoxicity (benign tumour)” value in [11] was found to be 0. In addition, in [13], the “Hepatotoxicity (granulomatous hepatitis)” value was determined as 0.

Consider `CO/N=C(\C(=O)N[C@@H]1C(=O)N2C(C(=O)O)=C(CSc3cnns3)CS[C@H]12)c1csc(N)n1` [CEFUZONAM], for which the “Hepatotoxicity (cytolytic)” value in series [1] was found to be 0. Moreover, the “Hepatotoxicity (choleostasis)” value in series [2] came out at 0. Further, the “Hepatotoxicity (chronic liver disease)” value in series [3] is given as 0. Besides, in [4], the “Hepatotoxicity (cirrhosis)” value is given as 0. For the same compound, in series [5], the “Hepatotoxicity (severe hepatitis)” value amounted to 0. In addition, the “Hepatotoxicity (moderate)” value in [6] is reported as 14.3%; in series [12], 19. The “Hepatotoxicity (association with vascular disease)” value in series [7] stood at 0. Moreover, in [8], the “Hepatotoxicity (malignant tumour)” value worked out at 0. Besides, in series [9], the “Hepatotoxicity (steatosis)” value is 0. For the same compound, the results for the “Hepatotoxicity (acute)” value in [10] and in [14] were 0 and 0%, respectively. For the same compound, the “Hepatotoxicity (benign tumour)” value in series [11] turned out to be 0. For the same compound, in series [13], the “Hepatotoxicity (granulomatous hepatitis)” value was determined as 0.

Turning to `C/N=C(/Cc1ccc2ccccc2c1)NC` [NAPACTADINE], the “Hepatotoxicity (cytolytic)” value in [1] is reported as 0. For the same compound, the “Hepatotoxicity (choleostasis)” value in series [2] was determined as 0. Also, the “Hepatotoxicity (chronic liver disease)” value in [3] is given as 0. Further, in series [4], the “Hepatotoxicity (cirrhosis)” value came out at 0. Also, the “Hepatotoxicity (severe hepatitis)” value in series [5] amounted to 0. For the same compound, the “Hepatotoxicity (moderate)” value in series [6] was determined as 0%; in series [12], 1. Besides, in [7], the “Hepatotoxicity (association with vascular disease)” value worked out at 0. For the same compound, in series [8], the “Hepatotoxicity (malignant tumour)” value is given as 0. Also, the “Hepatotoxicity (steatosis)” value in [9] was 0. The “Hepatotoxicity (acute)” value worked out at 0 in series [10] and 0% in series [14]. The “Hepatotoxicity (benign tumour)” value in series [11] is recorded as 0. In addition, the “Hepatotoxicity (granulomatous hepatitis)” value in [13] stood at 0.

`CC[C@H](C)C[C@H](C)CCCCCCCCC(=O)N[C@H]1C[C@@H](O)[C@@H](NCCN)NC(=O)[C@@H]2[C@@H](O)CCN2C(=O)[C@H]([C@H](O)CCN)NC(=O)[C@H]([C@H](O)[C@@H](O)c2ccc(O)cc2)NC(=O)[C@@H]2C[C@@H](O)CN2C(=O)[C@H]([C@@H](C)O)NC1=O` [CASPOFUNGIN]: in series [1], the “Hepatotoxicity (cytolytic)” value stood at 0. Further, the “Hepatotoxicity (choleostasis)” value in series [2] amounted to 0. In addition, in series [3], the “Hepatotoxicity (chronic liver disease)” value amounted to 0. For the same compound, the “Hepatotoxicity (cirrhosis)” value in series [4] worked out at 0. For the same compound, in series [5], the “Hepatotoxicity (severe hepatitis)” value was determined as 0. The “Hepatotoxicity (moderate)” value was 8.4% in series [6] and 3 in series [12]. Further, the “Hepatotoxicity (association with vascular disease)” value in series [7] came out at 0. In [8], the “Hepatotoxicity (malignant tumour)” value is 0. In series [9], the “Hepatotoxicity (steatosis)” value is 0. For the same compound, the “Hepatotoxicity (acute)” value is 1 in series [10] and 0% in [14]. For the same compound, the “Hepatotoxicity (benign tumour)” value in [11] came to 0. In addition, the “Hepatotoxicity (granulomatous hepatitis)” value in series [13] is recorded as 0.
